ChEMBL document CHEMBL1201862, “PubChem BioAssay data set” (2004)
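Interpolation was linear, between the two tested concentrations surrounding the appropriate level; five concentrations were tested over 48 hours in 96-well plates. GI50: concentration for 50% inhibition of growth.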 Calls of active or inactive are those of the source. No stated cut-off is given here; in the data, active = GI50 up to about 1.1 µM and inactive = higher.

Columns and labels:
Experiment in all cases: DTP human tumour cell line panel, 48 h
A549 = tested on: A549
M14 = tested on: M14
OVCAR-3 = tested on: OVCAR-3
SK-MEL-5 = tested on: SK-MEL-5
HCC 2998 = tested on: HCC 2998
UACC-257 = tested on: UACC-257
SNB-75 = tested on: SNB-75
HOP-62 = tested on: HOP-62
CAKI-1 = tested on: CAKI-1
NCI-H522 = tested on: NCI-H522
HT-29 = tested on: HT-29
SF-539 = tested on: SF-539
NCI-H460 = tested on: NCI-H460
SF-268 = tested on: SF-268
SK-MEL-2 = tested on: SK-MEL-2
HL-60 = tested on: HL-60
HOP-92 = tested on: HOP-92

| SMILES | GI50 (A549) | GI50 (M14) | GI50 (OVCAR-3) | GI50 (SK-MEL-5) | GI50 (HCC 2998) | GI50 (UACC-257) | GI50 (SNB-75) | GI50 (HOP-62) | GI50 (CAKI-1) | GI50 (NCI-H522) | GI50 (HT-29) | GI50 (SF-539) | GI50 (NCI-H460) | GI50 (SF-268) | GI50 (SK-MEL-2) | GI50 (HL-60) | GI50 (HOP-92) |
| --- | --- | --- | --- | --- | --- | --- | --- | --- | --- | --- | --- | --- | --- | --- | --- | --- | --- |
| CCOC(=O)[C@H]1Nc2ccc([N+](=O)[O-])cc2C2c3ccccc3CC21 (stereo partly specified) | 25.9 µM (inactive) | 15.2 µM (inactive) | 9.84 µM (inactive) | 13.1 µM (inactive) | 21.3 µM (inactive) | 18.7 µM (inactive) | 26 µM (inactive) | 18.9 µM (inactive) | 27.8 µM (inactive) | 6.7 µM (inactive) | 16 µM (inactive) | 17.3 µM (inactive) | 18.8 µM (inactive) | 16.5 µM (inactive) | 31.6 µM (inactive) | – | – |
| O=C(Nc1ccc(Cl)cc1)C1C(=O)C(=O)N(c2ccc(Cl)cc2)C1=O (stereo unspecified) | > 100 µM (inactive) | > 100 µM (inactive) | > 100 µM (inactive) | > 100 µM (inactive) | – | – | > 100 µM (inactive) | – | > 100 µM (inactive) | > 100 µM (inactive) | 74.8 µM (inactive) | > 100 µM (inactive) | > 100 µM (inactive) | > 100 µM (inactive) | 38.6 µM (inactive) | > 100 µM (inactive) | 29.1 µM (inactive) |
| NN/C(Cc1ccccc1)=N/NC(N)=S | > 100 µM (inactive) | > 100 µM (inactive) | – | – | > 100 µM (inactive) | > 100 µM (inactive) | > 100 µM (inactive) | > 100 µM (inactive) | – | 14.6 µM (inactive) | > 100 µM (inactive) | > 100 µM (inactive) | > 100 µM (inactive) | > 100 µM (inactive) | > 100 µM (inactive) | 63 µM (inactive) | > 100 µM (inactive) |
| Cc1cc2occ(C)c(=O)c2c2c1OC(C)(C)S2 | > 100 µM (inactive) | > 100 µM (inactive) | > 100 µM (inactive) | > 100 µM (inactive) | > 100 µM (inactive) | > 100 µM (inactive) | 88.5 µM (inactive) | > 100 µM (inactive) | – | 47.6 µM (inactive) | 97.9 µM (inactive) | > 100 µM (inactive) | > 100 µM (inactive) | > 100 µM (inactive) | > 100 µM (inactive) | 38.1 µM (inactive) | 55.3 µM (inactive) |
| N=C(N)/N=C(/C=C/c1ccccc1)CC1OC(=O)c2ccccc21 (stereo unspecified) | > 100 µM (inactive) | > 100 µM (inactive) | – | > 100 µM (inactive) | > 100 µM (inactive) | > 100 µM (inactive) | > 100 µM (inactive) | > 100 µM (inactive) | > 100 µM (inactive) | > 100 µM (inactive) | > 100 µM (inactive) | > 100 µM (inactive) | > 100 µM (inactive) | 61.1 µM (inactive) | > 100 µM (inactive) | > 100 µM (inactive) | – |
| COc1ccc(NC(=O)C2=CC(=O)c3ccc(O)cc3C2=O)c(OC)c1 | > 100 µM (inactive) | > 100 µM (inactive) | > 100 µM (inactive) | > 100 µM (inactive) | > 100 µM (inactive) | > 100 µM (inactive) | > 100 µM (inactive) | > 100 µM (inactive) | > 100 µM (inactive) | – | > 100 µM (inactive) | > 100 µM (inactive) | > 100 µM (inactive) | > 100 µM (inactive) | – | > 100 µM (inactive) | > 100 µM (inactive) |
| O=c1ccn(/C=C/C(O)C(O)CO)c(=O)[nH]1 (stereo unspecified) | > 100 µM (inactive) | – | > 100 µM (inactive) | > 100 µM (inactive) | > 100 µM (inactive) | > 100 µM (inactive) | > 100 µM (inactive) | > 100 µM (inactive) | > 100 µM (inactive) | > 100 µM (inactive) | > 100 µM (inactive) | > 100 µM (inactive) | – | > 100 µM (inactive) | > 100 µM (inactive) | > 100 µM (inactive) | – |
| Cc1cc(O)nc(NNC(C#N)c2c(O)ccc3ccccc23)n1 (stereo unspecified) | 2.9 µM (inactive) | 2.51 µM (inactive) | 1.78 µM (inactive) | 2.99 µM (inactive) | – | 3.64 µM (inactive) | 15 µM (inactive) | 6.5 µM (inactive) | 3.18 µM (inactive) | 8.89 µM (inactive) | 17.3 µM (inactive) | 3.85 µM (inactive) | 2.89 µM (inactive) | 2.28 µM (inactive) | 12.2 µM (inactive) | 0.966 µM (active) | 19.1 µM (inactive) |
| CCOC(=O)CC(NC(=O)c1nc[nH]c1[N+](=O)[O-])C(=O)OCC (stereo unspecified) | 60.1 µM (inactive) | 67.8 µM (inactive) | 38.6 µM (inactive) | 56 µM (inactive) | 30.5 µM (inactive) | 34.1 µM (inactive) | > 100 µM (inactive) | 46.7 µM (inactive) | 47 µM (inactive) | 48.9 µM (inactive) | 40.4 µM (inactive) | 59.6 µM (inactive) | 52 µM (inactive) | 40.6 µM (inactive) | 92.7 µM (inactive) | > 10 µM (inactive) | – |
| COc1cc(CC2c3cc(OC)c(OC)cc3CCN2C)c(C(=O)O)cc1OC (stereo unspecified) | > 100 µM (inactive) | > 100 µM (inactive) | > 100 µM (inactive) | > 100 µM (inactive) | > 100 µM (inactive) | > 100 µM (inactive) | > 100 µM (inactive) | > 100 µM (inactive) | – | > 100 µM (inactive) | > 100 µM (inactive) | > 100 µM (inactive) | – | > 100 µM (inactive) | > 100 µM (inactive) | > 100 µM (inactive) | > 100 µM (inactive) |
| CCC1CC(C)=CCN1S(=O)(=O)c1ccc(C)cc1 (stereo unspecified) | 21.5 µM (inactive) | 22 µM (inactive) | 17.4 µM (inactive) | 13.9 µM (inactive) | – | 25.9 µM (inactive) | 13.9 µM (inactive) | 21.3 µM (inactive) | 6.9 µM (inactive) | 16.6 µM (inactive) | 20 µM (inactive) | 14.5 µM (inactive) | 21.1 µM (inactive) | 15.9 µM (inactive) | 11 µM (inactive) | 3.61 µM (inactive) | – |
| Cc1cc(=O)oc2cc3c(cc12)Oc1ccccc1O3 | > 100 µM (inactive) | > 100 µM (inactive) | > 100 µM (inactive) | > 100 µM (inactive) | > 10 µM (inactive) | > 100 µM (inactive) | 21.1 µM (inactive) | > 100 µM (inactive) | – | – | > 100 µM (inactive) | 18.1 µM (inactive) | 51.9 µM (inactive) | 38.3 µM (inactive) | > 100 µM (inactive) | > 10 µM (inactive) | > 100 µM (inactive) |
| Cc1cc2c(C)n(Cc3ccc(Cl)cc3Cl)nc2c(C(=O)O)c1C | > 100 µM (inactive) | – | > 100 µM (inactive) | – | > 100 µM (inactive) | > 100 µM (inactive) | > 100 µM (inactive) | > 100 µM (inactive) | – | – | > 100 µM (inactive) | > 100 µM (inactive) | 96.4 µM (inactive) | > 100 µM (inactive) | > 100 µM (inactive) | > 100 µM (inactive) | 42.9 µM (inactive) |
| COc1cccc(NC(=O)CSc2nnc(Cc3ccccc3)o2)c1 | > 100 µM (inactive) | > 100 µM (inactive) | > 100 µM (inactive) | 57 µM (inactive) | > 100 µM (inactive) | > 100 µM (inactive) | 51.8 µM (inactive) | > 100 µM (inactive) | > 100 µM (inactive) | > 100 µM (inactive) | > 100 µM (inactive) | > 100 µM (inactive) | > 100 µM (inactive) | > 100 µM (inactive) | > 100 µM (inactive) | 54.3 µM (inactive) | – |
| CCOC(=O)/C(O)=C(/C(=O)OC)c1ccc(Cl)cc1 | > 100 µM (inactive) | > 100 µM (inactive) | > 100 µM (inactive) | > 100 µM (inactive) | > 100 µM (inactive) | > 100 µM (inactive) | > 100 µM (inactive) | > 100 µM (inactive) | > 100 µM (inactive) | – | > 100 µM (inactive) | > 100 µM (inactive) | > 100 µM (inactive) | > 100 µM (inactive) | > 100 µM (inactive) | – | – |
| COc1ccc2c(c1)[n+]([O-])c(C(=O)C/C(=N/OCCCc1ccccc1)C(=O)NC13CC4CC(CC(C4)C1)C3)c(C)[n+]2[O-] | > 100 µM (inactive) | > 100 µM (inactive) | > 100 µM (inactive) | > 100 µM (inactive) | > 100 µM (inactive) | > 100 µM (inactive) | > 100 µM (inactive) | > 100 µM (inactive) | > 100 µM (inactive) | > 100 µM (inactive) | > 100 µM (inactive) | > 100 µM (inactive) | > 100 µM (inactive) | > 100 µM (inactive) | > 100 µM (inactive) | > 100 µM (inactive) | – |
| CCCCC(C(=O)C(=O)Nc1ccc(C)cc1C)C(=O)C(C)C (stereo unspecified) | > 100 µM (inactive) | > 100 µM (inactive) | > 100 µM (inactive) | > 100 µM (inactive) | > 100 µM (inactive) | > 100 µM (inactive) | > 100 µM (inactive) | > 100 µM (inactive) | > 100 µM (inactive) | – | > 100 µM (inactive) | > 100 µM (inactive) | > 100 µM (inactive) | > 100 µM (inactive) | > 100 µM (inactive) | > 100 µM (inactive) | > 100 µM (inactive) |
| O=C(O)C1CC2CC(=O)C1C2 (stereo unspecified) | > 100 µM (inactive) | > 100 µM (inactive) | > 100 µM (inactive) | > 100 µM (inactive) | – | > 100 µM (inactive) | > 100 µM (inactive) | > 100 µM (inactive) | > 100 µM (inactive) | > 100 µM (inactive) | > 100 µM (inactive) | > 100 µM (inactive) | > 100 µM (inactive) | > 100 µM (inactive) | > 100 µM (inactive) | > 100 µM (inactive) | > 100 µM (inactive) |
